Laboratory results as given in ChEMBL document CHEMBL4308868 (Bioorg Med Chem Lett, 2019).

biological target: T1, Tyrosinase (Agaricus bisporus, UniProt O42713)
T1 sequence (O42713 whole entry): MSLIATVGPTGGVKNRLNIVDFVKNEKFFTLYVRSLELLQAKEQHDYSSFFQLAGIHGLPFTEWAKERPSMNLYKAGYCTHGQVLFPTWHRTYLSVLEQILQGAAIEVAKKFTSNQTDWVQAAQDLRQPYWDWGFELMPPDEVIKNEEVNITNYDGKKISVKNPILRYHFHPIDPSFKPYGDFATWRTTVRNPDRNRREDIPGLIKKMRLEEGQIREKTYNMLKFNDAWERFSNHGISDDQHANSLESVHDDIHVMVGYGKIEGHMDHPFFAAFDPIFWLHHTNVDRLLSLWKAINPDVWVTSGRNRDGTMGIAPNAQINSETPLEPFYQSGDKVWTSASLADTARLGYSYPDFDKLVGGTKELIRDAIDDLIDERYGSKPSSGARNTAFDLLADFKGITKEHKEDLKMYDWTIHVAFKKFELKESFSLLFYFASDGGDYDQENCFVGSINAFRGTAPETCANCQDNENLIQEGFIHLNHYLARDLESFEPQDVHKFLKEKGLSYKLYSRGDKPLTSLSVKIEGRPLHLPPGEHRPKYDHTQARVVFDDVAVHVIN
Description: Inhibition of mushroom tyrosinase using L-tyrosine as substrate measured after 20 mins by spectrophotometric method

Row | Compound | IC50 [µM]
1 | CCOc1cc(C(C)C)c(C(=O)CCC(=O)OCc2ccccc2)cc1C | > 500
2 | CCOc1cc(C(C)C)ccc1C | > 500
3 | C/C=C/COC(=O)CCC(=O)c1cc(C(C)C)c(OCC)cc1C | 102
4 | CCOc1cc(C(C)C)c(C(=O)CCC(=O)OC)cc1C | > 500
5 | CCOc1cc(C)ccc1C(C)C | > 500
6 | CCCOC(=O)CCC(=O)c1cc(C)c(OCC)cc1C(C)C | 218
7 | CCCCOC(=O)CCC(=O)c1cc(C(C)C)c(OCC)cc1C | 191
8 | C=CCOC(=O)CCC(=O)c1cc(C(C)C)c(OCC)cc1C | 126
9 | CCOc1cc(C)c(C(=O)CCC(=O)OCc2ccccc2)cc1C(C)C | > 500
10 | CCOc1cc(C)c(C(=O)CCC(=O)OC)cc1C(C)C | > 500
11 | CCCCOC(=O)CCC(=O)c1cc(C)c(OCC)cc1C(C)C | 176
12 | CCCOC(=O)CCC(=O)c1cc(C(C)C)c(OCC)cc1C | 154
13 | CCOC(=O)CCC(=O)c1cc(C(C)C)c(OCC)cc1C | 212
14 | C/C=C/COC(=O)CCC(=O)c1cc(C)c(OCC)cc1C(C)C | 244
15 | CCOC(=O)CCC(=O)c1cc(C)c(OCC)cc1C(C)C | > 500
16 | CCOc1cc(C)c(C(=O)CCC(=O)O)cc1C(C)C | > 500
17 | CCOc1cc(C(C)C)c(C(=O)CCC(=O)O)cc1C | > 500
18 | Cc1ccc(C(C)C)cc1O [CARVACROL] | > 500
